In patent US20070043108A1, “Use of equol for ameliorating or preventing neuropsychiatric and neurodegenerative diseases or disorders” (priority 2002, published 2007):

What was measured:
ERβ = target: T1, ERβ (Rattus norvegicus, UniProt Q62986); experiment: Competition binding of equol enantiomers with [3H]E2 for in vitro translated ERβ
T1 construct: Full length rat ERα expression vector (pcDNA-ERα; RH Price UCSF) and ERβ expression vector (pcDNA-ERβ; T A Brown, Pfizer; made in house; host or cells: TnT-coupled rabbit reticulocyte lysate in vitro translation (Promega)
T1 sequence (Q62986 whole entry): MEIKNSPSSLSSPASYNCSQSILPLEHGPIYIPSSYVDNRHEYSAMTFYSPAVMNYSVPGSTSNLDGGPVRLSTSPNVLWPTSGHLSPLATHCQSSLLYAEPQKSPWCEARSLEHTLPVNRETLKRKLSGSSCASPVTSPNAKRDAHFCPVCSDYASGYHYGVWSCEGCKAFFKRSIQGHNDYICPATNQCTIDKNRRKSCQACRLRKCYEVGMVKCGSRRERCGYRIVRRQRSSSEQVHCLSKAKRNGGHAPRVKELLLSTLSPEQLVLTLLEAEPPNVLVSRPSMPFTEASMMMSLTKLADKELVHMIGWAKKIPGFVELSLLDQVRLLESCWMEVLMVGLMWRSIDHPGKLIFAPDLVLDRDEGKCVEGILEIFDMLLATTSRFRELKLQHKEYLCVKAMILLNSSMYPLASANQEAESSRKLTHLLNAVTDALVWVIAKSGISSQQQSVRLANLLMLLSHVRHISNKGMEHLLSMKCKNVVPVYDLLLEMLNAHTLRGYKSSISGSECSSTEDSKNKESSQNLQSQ
Description: In vitro binding studies were performed to examine the relative affinities of S— and R-enantiomeric equol with the estrogen receptors ERα and ERβ.
Synthesis of Hormone Receptor Proteins: Full length rat ERα expression vector (pcDNA-ERα; RH Price UCSF) and ERβ expression vector (pcDNA-ERβ; T A Brown, Pfizer, Groton, […].) were used to synthesize hormone receptors in vitro using the TnT-coupled reticulocyte lysate system (Promega, Madison, Wis.) with T7-RNA polymerase, during a 90 min reaction at 30° C. Translation reaction mixtures were stored at −80° C. until further use.
Saturation isotherms: In order to calculate and establish the binding affinity of the S-equol and R-equol enantiomers for ERα and ERβ, 100 μL aliquots of reticulocyte lysate supernatant were incubated at optimal time and temperature; 90 min at room temperature (ERβ) and 18 hrs at 4° C. (ERα), with increasing (0.01-100 nm) concentrations of [3H] […] These times were determined empirically and represent optimal binding of receptor with estrogen. Nonspecific binding was assessed using a 300-fold excess of the ER agonist diethylstilbestrol, in parallel tubes. Following incubation, bound and unbound [3H]E2 were separated by passing the incubation reaction through a 1 mL lipophilic Sephadex LH-20 (Sigma-Aldrich Co., Saint Louis, Mo.) column Columns were constructed by packing a disposable pipette tip (1 mL; Labcraft, Curtin Matheson Scientific, Inc, Houston, Tex.) with TEGMD (10 mm Tris-Cl, 1.5 mm EDTA, 10% glycerol, 25 mm molybdate, and 1 mm dithiothreitol, pH 7.4)-saturated Sephadex according to previously published protocols (Wanda et al., 1986; O'Keefe and Handa, 1990). For chromatography, the columns were re-equilibrated with TEGMD (100 μL), and the incubation reactions were added individually to each column and allowed to incubate on the column for an additional 30 min. Following this incubation, 600 μL of TEGMD were added to each column, flow-through was collected, 4 mL scintillation fluid was added, and samples were counted (5 min each) in an 2900 TR Packard scintillation counter (Packard Bioscience, Meriden, Conn.).
Competition binding studies were used to assess the estrogenic properties of equol's S-equol and R-equol enantiomers. Based on the ability of S and R to compete with [3H]

Male Sprague-Dawley rats = experiment: Example 1: prostate size and hormone secretion in intact male rats injected sc with racemic equol; format: in vivo, rat; conditions: intact males, 0.25 mg/kg sc 1/day for 4 days, vs control
Description: Male Sprague-Dawley rats (400-500 grams) are obtained from Charles Rivers Laboratories (Wilmington, Mass., USA). Rats are caged in pairs and maintained on a 12-hour dark 12-hour light schedule (lights on at 0700 h) with ad libitum access to food and water.
One week following arrival, animals are given subcutaneous (sc) injections (1/day for 4 days) of either dimethylsulfoxide (DMSO) (vehicle control) or racemic equol (0.25 mg/kg). Eighteen hours after the final injection, animals are killed via decapitation and trunk blood and prostate are collected for analysis.

GDX males [1] = experiment: Examples 5 and 6: gonadectomized (GDX) male rats treated with DHTP, equol or both; histology; format: in vivo, rat
Description: One week following arrival, animals are gonadectomized (GDX) under isoflurane anesthesia and allowed to recover for 7 days. Following recovery, animals are assigned to the following groups 1) DMSO, 2) DHTP (2 mg/1 kg), 3) racemic equol (0.25 mg/kg), or 4) both DHTP and racemic equol. Injections are given subcutaneously daily for 4 days. Animals are killed via decapitation and trunk blood and tissues are collected for analysis.
Tissues, including prostate, testes and epididymis, are removed from the animal, dissected free of fat and connective tissues, weighed, fixed by immersion in 4% paraformaldehyde, and then sectioned at 15 μm on a cryostat. Tissue sections are mounted on charged slides (Superfrost Plus, Fisher Scientific, Pittsburgh, Pa.) prewarmed to 23° C., and stained with hematoxylin and eosin (H&E), dehydrated in ascending alcohol and cleared with xylene.

GDX males [2] = experiment: as above; format: in vivo, rat; remark: listed apart in the source
[3] = system: mid-aged Long-Evans female rats; experiment: Example 17: Porsolt forced swim test and body weight in mid-aged female rats; format: in vivo, rat
Description: The female rats were exposed (from time of conception) to either a phytoestrogen-rich (Phyto-600) or a phytoestrogen-free (Phyto-free) diet.
At 12 months of age, the animals were analyzed using the Porsolt forced swim test that is a standard preclinical test with applications to humans for investigating the neurobiology of depression and of action of antidepressant agent (R. D. Porsolt, M. Pichon and M Jalfre, Nature 266: 730-732, 1977; and M. A. Geyer & A. Markou, in Psychopharmacology: The Fourth Generation of Progress, NY, Raven Press, pp. 787-798, 1995).
The test is designed to force rats to swim vigorously. Over time, some of the animals may become immobile which is considered a condition of behavioral despair. The total time an animal is immobile is an index of despair or depression. […] S. Hall, J. Comp. Psych., 18: 385-403, 1934), increased boli numbers during the test would indicate heighten emotional behavior. All of these parameters were recorded in this study and quantified by AnyMaze® computer software and the total time of the Porsolt forced swim test was 480 seconds or 8 minutes.
The animals were tested twice.
Test 1 compared diet exposure alone, shown as A in FIGS. 58-69 and labeled as “before equol injections.”
In the second stage of testing the Phyto-free fed females were injected with equol@ […] or 2.5 mg/kg via subcutaneous administration) for 8 days while the Phyto-600 fed females received dimethylsulfoxide (DMSO) vehicle control injections. (DMSO has been used in medicine due to its ability to penetrate deeply through the skin and other membranes without damaging them and ability to carry compounds into the circulation).
Test 2 assessed depressive behaviors following the equol treatments, shown as B in FIGS. 58-69 and labeled as “after equol injections.”

[4] = Test 2, Phyto-free females after equol for 8 days

Row | Compound | affinity for ERβ, fold less (ERβ) | Kd (ERβ; competition with [3H]E2, in vitro translated ER) | luteinizing hormone (LH) (Male Sprague-Dawley rats) | prostate weight (Male Sprague-Dawley rats) | LH, in combination with DHTP (GDX males [1]; GDX males, DHTP+equol) | prostate weight, concomitant treatment with DHTP (GDX males [1]; GDX males, DHTP+equol) | LH (GDX males [1]; GDX males, given alone, vs DMSO) | prostate weight (GDX males [1]; GDX males, given alone, vs vehicle-treated GDX) | plasma 5α-DHT, co-treatment of DHTP-treated animals with equol (GDX males [1]; GDX+equol+DHTP vs GDX+DHTP) | epididymal histology (H&E) (GDX males [2]; intact males vs control males) | prostate histology (H&E) (GDX males [2]; intact males vs intact control) | total distance traveled ([3]; Test 2, Phyto-free females after equol 5 mg/day sc for 8 days) | number of boli [3, 4] | number of dives [3, 4] | total time immobile [3, 4] | total time mobile ([3]; Test 2, after vs before equol injections) | decrease in body weight over controls ([3]; after the 8 day treatment interval) | Body Weight Loss (grams) ([3]; mid-aged females, end of 8 day treatment, ±SEM)
1 | Oc1ccc([C@@H]2COc3cc(O)ccc3C2)cc1 [R-equol] | approximately 100 fold | 0.0154 ± 0.00131 µM | – | – | – | – | – | – | – | – | – | – | – | – | – | – | – | –
2 | Oc1ccc(C2COc3cc(O)ccc3C2)cc1 (racemic) [equol, 7-hydroxy-3(4′hydroxyphenyl)-chroman] | – | – | significantly increased | significant reduction | blocks the negative feedback effects of DHTP on LH secretion | blocks the effects of DHTP | no effect on LH levels | no effect alone on prostate size | further elevated, although, not significantly | overall smaller ducts | involution and consist of more closely spaced, atrophic glands | increased and similar to control values | reduced after equol treatments | significantly reduced and comparable to control levels | significantly reduced and similar to controls | significantly increased | 2.6 fold | −31.2 (±4.8*) grams
